Values quoted from earlier work in PMC2074590 (British Journal of Cancer, 1996).

Experiments:
advanced breast cancer = conditions: ref Cole et al., 1971, Patterson et al., 1981; cited from earlier work
[1] = system: Ki67, ER, PgR, pS2 in primary breast cancer; conditions: similar clinical experiments; ref Howell et al., 1988; Roberston et al., 1991; Clarke et al., 1993; Nicholson et al., 1994; cited from earlier work
breast cancer cells = system: breast cancer cells; set-up: method as in Wakeling and Bowler, 1987, 1988; conditions: ref Wakeling and Bowler, 1987, 1988; cited from earlier work
[2] = ref Willemse et al., 1990; cited from earlier work

## CC/C(=C(\c1ccccc1)c1ccc(OCCN(C)C)cc1)c1ccccc1 [tamoxifen, reference compound]
Advanced breast cancer
  Median duration of remission: about 18 months
[1]
  ER expression: no change in ER expression
  PgR expression: slightly increased PgR expression

## CCCCN(C)C(=O)CCCCCCCCCC[C@@H]1Cc2cc(O)ccc2[C@H]2CC[C@]3(C)[C@@H](O)CC[C@H]3[C@H]12 [ICI 164384, reference compound]
Breast cancer cells
  Potency as inhibitor of cell growth in vitro relative to tamoxifen: up to two orders of magnitude more potent than tamoxifen

## CC(=O)O[C@]1(C(C)=O)CC[C@H]2[C@@H]3C=C(C)C4=CC(=O)CC[C@]4(C)[C@H]3CC[C@@]21C [megestrol acetate]
[2]
  Patients with weight gain of > 5% of body weight: 25%
